Experimental data as given in US20090155236A1, “Peptide sequence for modulation of delta protein kinase c” (NATIONAL INSTITUES OF HEALTH (NIH), U.S. DEPT OF HEALTH AND …, priority 2004, published 2009).
Positions of bridges follow the written chain, without caps; N, C: chain ends. No end group written: not given here.

Experiments:
[1] = biological target: T1, annexin V and delta PKC interaction (Homo sapiens, UniProt Q05655); assay: Cross-linking immuno-precipitation of delta PKC probed with anti-annexin V in cardiac myocytes; assay type: cell-based; conditions: cardiac myocytes stimulated with the agent, FIG. 5
T1 construct: endogenous in cells; host or cells: cardiomyocytes
Procedure: Example 4 describes a study where cardiac myocytes were stimulated with a selected agent and then immuno-precipitated with anti-delta PKC after cross-linking. The cell lysates were then probed with anti-annexin V and visualized with ECL Western blotting. […] The stimulation agent was applied to the cells for times of between 30 seconds to 20 minutes, prior to lysing.
Cardiomyocytes were treated with phorbol 12-myristate 13-acetate (PMA; 10 nM), hydrogen peroxide (H2O2; 5 mM), JTV-519, or delta V1-1 peptide (1 μM) and JTV-519 (1 μM), for times of between 30 seconds to 5 minutes. After the lapsed time, the cells were washed with cold PBS, and homogenized on ice with trituration in homogenization buffer (20 mM Tris pH 7.4, 2 mM EDTA, 10 mM EGTA, 0.25M sucrose, 12 mM O-mercaptoethanol, and protease inhibitor cocktail (Sigma), 0.1% formaldehyde. After 30 min at 4° C., the lysates were quenched with 0.14M glycine for 20 min at 4° C., and samples spun at 14K rpm at 4° C. The supernatant was incubated with 1 μg anti-delta PKC antibody (Santa Cruz Biotechnology, Inc., Santa Cruz, Calif.) for 1 hour, then with proteinG beads (Invitrogen Corporation) for 3 hours at 4° C. The beads where then washed with wash buffer (20 mM Tris pH 7.5, 2 mM EDTA, 100 mM NaCl, 12 mM β-mercaptoethanol, 0.1% Triton), and separated on 7.5% SDS-PAGE, transferred to nitrocellulose, and probed with anti-annexin V (Santa Cruz Biotechnology, Inc., Santa Cruz, Calif.), followed by visualization by ECL Western blotting.

delta PKC [2] = biological target: T2, delta PKC (Homo sapiens, UniProt Q05655); assay: In vitro kinase assay, histone phosphorylation by delta PKC; assay type: biochemical
T2 construct: purchased Panvera LLC, now Invitrogen Corporation
Procedure: In another study, the ability of annexin V to increase the catalytic activity of delta PKC in vitro was evaluated. Full-length, recombinant delta PKC (SEQ ID NO:3) and epsilon PKC (SEQ ID NO:6) were separately incubated in the presence of kinase buffer, ATP, or histone, as described in Example 3. Activators of PKC, phosphatidylserine (PS) and diacylglycerol (DAG), were added along with annexin V, JTV-519, a 1,4 benzothiazepine derivative that activates delta PKC (Inagaki, K. et al., Circulation, 101:797 (2000)), or a mixture of annexin V and JTV-519.
200 ng of pure delta PKC or epsilon PKC (Panvera LLC, now Invitrogen Corporation, Carlsbad, Calif.) were incubated in 100 μL kinase buffer (20 mM Tris pH 7.4, 50 mM MgCl2, 0.3 μCi/reaction [γ-^32P]ATP (Amersham Biosciences), 9 μM/reaction ATP (Sigma), 30 μg/reaction myelin basic protein or histone A1 (Sigma); 100 μM lipid vesicle mixture (90% phosphatidylserine (PS): 10% diacylglycerol (DAG)), 1 mM CaCl2, 1 μM JTV519, and/or 20 ng of Annexin V/reaction were added, where applicable. The kinase reaction was stopped by the addition of SDS sample buffer, and extent of histone phosphorylation assessed after separation on 15% SDS-PAGE and transfer onto nitrocellulose membrane by autoradiography.

[3] = biological target: T3, delta PKC/annexin V interaction (Cricetulus griseus, UniProt A0A8C2N0P5); assay: Cross-linking co-immunoprecipitation of annexin V and delta PKC in CHO cells; assay type: cell-based
T3 construct: endogenous in cells; host or cells: CHO cells
Procedure: A similar study was conducted to further evaluate the in vitro, intracellular interactions of delta PKC and annexin V. Cellular interactions of delta PKC/annexin V interaction in CHO cells were stabilized with a cross-linking agent, after stimulation with 10 nM PMA. The complexes formed with delta PKC were then immuno-precipitated and tested for the presence of annexin V. The SDS-PAGE gel is shown in FIG. 6A and a corresponding graph quantifying percent association of annexin V and delta PKC as a function of time is shown in FIG. 6B. […] The interaction is relatively short-lived, and the proteins disassociated after 1 minute of stimulation.
The effect of JTV-519, an activator of delta PKC, on the association of annexin V and delta PKC was also evaluated in this study. Cells were treated with JTV-519, and the association of annexin V and delta PKC was examined using the co-immunoprecipitation procedure described above. […] PMA caused the disassociation of the JTV-induced complex at 30 seconds, the time of maximal PMA-induced association. […] Whereas the cytosolic fraction of the cells contained a steady low level of the complex, the majority of the complex was found in the particulate fraction of the cells, and disappearance from the particulate fraction followed the same time-course as observed in whole cell lysates (compare FIG. 6D bottom panel with FIG. 6B).

isolated rat hearts = assay: Ex vivo ischemia/reperfusion in isolated rat hearts; conditions: for infarct size: treated 10 minutes prior to 30 minutes ischemia, 60 minutes reperfusion, FIG. 9A
Procedure: The physiologic impact of disruption of the delta PKC-annexin V complex was evaluated in an ex vivo ischemia/reperfusion study using the annexin V peptide, TAT-AnxV, and its mutant, TAT-AnxV(R→E). As described in Example 7, isolated rat hearts were treated with TAT-AnxV or TAT-AnxV(R→E) for 10 minutes prior to induction of an ischemic episode. The ischemic episode lasted for 30 minutes, at which time flow to the heart was returned for 60 minutes (reperfusion). After the reperfusion period, cardiac effluent was collected and analyzed for creatine phosphokinase (CPK). The hearts were stained and visually inspected for live and dead tissue. Infarct size was measured by taking the average of the dead (white) tissue on both sides of the tissue slice.
A similar study was conducted, except rather than pretreating the isolated hearts with the annexin V peptide, the peptide was administered after the ischemic event and during the initial 10 minutes of the reperfusion period. Hearts were similarly treated with the mutant peptide, TAT-AnxV(R→E).
Rats were anesthetized and their hearts were rapidly removed and cannulated via the aorta for retrograde perfusion (Colbert, M. et al., J. Clin. Invest., 100:1958 (1997)). The hearts were left untreated, or were pretreated with the annexin V peptide, conjugated to TAT, (TAT-AnxV, SEQ ID NO:29) or with its mutant, TAT-AnxV(R→E) (SEQ ID NO:31), for 10 minutes prior to a 30 minutes of ischemia. Ischemia was induced by interrupting flow for 30 minutes and then reestablishing flow for 60 minutes (reperfusion). Cardiac effluent was collected for 15 minutes after reperfusion and assayed for creatine phosphokinase (CPK) using a Sigma kit. Hearts were stained with 2,3,5-triphenyltetrazolium chloride ([…]) to visualize live tissue (red) and dead tissue (white), and infarct size was measured by taking the average of the white area on both sides of the tissue slice (n=3, p<0.05). Results are shown in FIGS. 9A-9B and FIGS. 10A-10B.

delta PKC [4] = biological target: T4, delta PKC (Cricetulus griseus, UniProt A0A8C2N0P5); assay: Translocation of delta PKC to the membrane fraction of CHO cells upon PMA stimulation; assay type: cell-based; conditions: CHO cells pretreated 1 μM for 15 minutes, PMA 10 nM for 5 minutes, FIGS. 8A-8B
T4 construct: endogenous in cells; host or cells: CHO cells
Procedure: The ability of the annexin V peptide to block the intracellular interaction of delta PKC and annexin V was illustrated in the following study. The annexin V peptide (SEQ ID NO: 1) was conjugated to a TAT47-57 carrier peptide (SEQ ID NO:26) through an N-terminal Cys-Cys bond, as previously described (Chen, L. et al., Proc. Natl. Acad. Sci. USA, 98:11114-9 ((2001)). This peptide, identified herein as SEQ ID NO:29 and referred to as TAT-AnxV peptide, was used to pretreat (1 μM for 15 minutes) CHO cells prior to stimulation with PMA (10 nM for 5 minutes). For comparison, the annexin V peptide sequence was modified at the Arg (R) residue with a Glu (E) residue, to form a peptide having the sequence LQANEDPD, identified herein as SEQ ID NO:30. Substitution of E for R confers a charge difference between annexin V and delta PKC. This peptide was also attached to a TAT carrier peptide via N-terminal modification with a Cys-Cys bond. The conjugate is referred to herein as TAT-AnxV(R→E) (SEQ ID NO:31) and is denoted in some figures as “EpAnxV.” Cells were similarly pretreated with TAT-AnxV(R→E), prior to stimulation with PMA. As controls, some cells were left untreated and other cells were exposed only to PMA. […]

T3 sequence (A0A8C2N0P5 1-676): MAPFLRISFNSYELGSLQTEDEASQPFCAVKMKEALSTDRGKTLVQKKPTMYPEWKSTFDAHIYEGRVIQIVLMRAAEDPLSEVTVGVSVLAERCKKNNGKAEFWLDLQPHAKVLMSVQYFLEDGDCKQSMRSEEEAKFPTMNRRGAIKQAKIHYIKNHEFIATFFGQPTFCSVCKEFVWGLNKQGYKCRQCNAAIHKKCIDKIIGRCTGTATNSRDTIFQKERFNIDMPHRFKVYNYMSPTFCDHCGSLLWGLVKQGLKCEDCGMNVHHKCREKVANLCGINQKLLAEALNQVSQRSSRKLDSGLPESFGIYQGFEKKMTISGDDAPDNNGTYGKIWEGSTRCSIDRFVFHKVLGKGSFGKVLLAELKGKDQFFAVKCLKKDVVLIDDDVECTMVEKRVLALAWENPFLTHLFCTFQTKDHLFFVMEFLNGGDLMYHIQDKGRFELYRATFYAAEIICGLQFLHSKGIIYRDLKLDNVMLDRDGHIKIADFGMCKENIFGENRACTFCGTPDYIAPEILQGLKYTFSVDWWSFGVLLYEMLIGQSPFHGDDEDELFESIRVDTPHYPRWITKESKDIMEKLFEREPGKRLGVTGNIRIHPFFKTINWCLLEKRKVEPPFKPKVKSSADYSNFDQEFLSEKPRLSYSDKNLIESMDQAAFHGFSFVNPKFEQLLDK
T3 sequence (G3I5A4 1-321 partner): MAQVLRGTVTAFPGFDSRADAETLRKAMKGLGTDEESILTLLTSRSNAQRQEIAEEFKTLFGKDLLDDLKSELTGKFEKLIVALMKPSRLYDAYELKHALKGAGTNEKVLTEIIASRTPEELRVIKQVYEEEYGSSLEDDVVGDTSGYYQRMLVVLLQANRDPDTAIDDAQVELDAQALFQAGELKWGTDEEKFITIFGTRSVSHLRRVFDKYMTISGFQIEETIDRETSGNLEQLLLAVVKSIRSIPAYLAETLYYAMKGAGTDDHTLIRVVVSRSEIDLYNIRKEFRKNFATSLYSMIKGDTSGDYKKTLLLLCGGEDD
T4 sequence (A0A8C2N0P5 1-676): as the sequence (A0A8C2N0P5 1-676) above
T2 sequence (Q05655 whole entry): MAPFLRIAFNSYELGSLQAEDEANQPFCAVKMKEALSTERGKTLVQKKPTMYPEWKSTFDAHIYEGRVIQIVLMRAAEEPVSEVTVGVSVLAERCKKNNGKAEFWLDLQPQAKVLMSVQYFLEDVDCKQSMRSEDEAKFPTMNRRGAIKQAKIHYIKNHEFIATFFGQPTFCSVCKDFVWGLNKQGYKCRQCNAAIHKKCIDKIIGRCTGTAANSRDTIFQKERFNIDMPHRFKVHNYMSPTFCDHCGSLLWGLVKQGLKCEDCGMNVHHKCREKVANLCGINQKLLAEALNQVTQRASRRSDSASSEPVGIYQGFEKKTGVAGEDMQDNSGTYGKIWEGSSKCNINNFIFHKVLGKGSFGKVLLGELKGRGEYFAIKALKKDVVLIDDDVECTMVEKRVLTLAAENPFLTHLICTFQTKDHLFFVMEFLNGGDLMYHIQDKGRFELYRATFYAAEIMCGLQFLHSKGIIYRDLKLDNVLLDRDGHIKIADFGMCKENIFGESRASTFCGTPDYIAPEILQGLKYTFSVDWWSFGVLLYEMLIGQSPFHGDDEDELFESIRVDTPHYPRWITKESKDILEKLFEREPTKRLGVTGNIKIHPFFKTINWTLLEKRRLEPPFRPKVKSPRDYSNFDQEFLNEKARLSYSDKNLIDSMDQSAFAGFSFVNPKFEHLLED
T1 sequence (Q05655 whole entry): as above

Compound	interaction of annexin V and delta PKC [1]	catalytic activity of delta PKC (histone phosphorylation) (delta PKC [2]; in the presence of PS/DAG, FIG. 4A)	catalytic activity of delta PKC (histone phosphorylation) (delta PKC [2]; in the presence of annexin V and PS/DAG, FIG. 4A Lane 5)	association of annexin V and delta PKC ([3]; basal conditions, FIGS. 6A-B)	cellular localization of the delta PKC-annexin V complex ([3]; soluble versus particulate fraction, FIG. 6D)	infarct size (isolated rat hearts)	translocation of delta PKC to the cell membrane (delta PKC [4])	creatine phosphokinase (CPK) released (isolated rat hearts; treated 10 minutes prior to ischemia, FIG. 9B)
COc1ccc2c(c1)CN(C(=O)CCN1CCC(Cc3ccccc3)CC1)CCS2 [JTV-519]	greatly enhanced	about the same extent as observed for delta PKC in the presence of PS/DAG alone	blocked the increased catalytic activity observed with annexin V	full association	most of the δPKC-annexin V complex remained in the soluble fraction			
TAT-AnxV(R→E): conjugate of SEQ ID NO:30 joined to a TAT carrier peptide through an N-terminal cysteine-cysteine bond (YGRKKRRQRRRCCLQANEDPD; disulfide 12-13 (inferred))						did not inhibit the delta PKC-induced damage	lost its inhibitory effect on delta PKC translocation	
TAT-AnxV: conjugate of SEQ ID NO:1 joined to a TAT carrier peptide through an N-terminal cysteine-cysteine bond (YGRKKRRQRRRCCLQANRDPD; disulfide 12-13 (inferred))						statistically significant decrease in infarct size	blocked the translocation of delta PKC	reduced level of creatine phosphokinase
